The results in this text go back to patent US20030134859A1 (SANKYO COMPANY, LIMITED, priority 2000, published 2003).

The first test relates to Rat white adipocytes. In words: Stimulation of differentiation of the adipocytes (Oil Red O). It counts as cell-based. Conditions: 100 nM test compound; 5 days; Oil Red O ABS550; control = 100%, blank = 0%; Table 7. An outline of the steps:
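Oil Red O lipid staining, absorbance 550 nm after DMSO extraction, quantified differentiation of rat white adipocytes exposed 5 days to compound (final 100 nM, 0.1% DMSO) in differentiation medium. Percent differentiation normalised between cell-free blank (0%) and DMSO control (100%).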
For the compound “N-[4-(Pyrrolidinylsulfonyl)phenyl]-(2-chloro-5-nitrophenyl)carboxamide [Example 152]”, the “Rate of Differentiation (%)” value came to 112.7%.

As to `Cc1cc(NS(=O)(=O)c2ccc(NC(=O)c3cc([N+](=O)[O-])ccc3Cl)cc2)no1` [Example 99], the “Rate of Differentiation (%)” value is given as 119.0%.

The test is the same for the next values; noted with them: Rattus norvegicus, Adipocyte, 120 h, 100 nM test compound; 5 days; Oil Red O ABS550; control = 100%, blank = 0%; Table 7; read-out: Rate of Differentiation (%).
`O=C(Nc1ccc(S(=O)(=O)Nc2ccc(Cl)nn2)cc1)c1cc([N+](=O)[O-])ccc1Cl` [Example 102, N-[4-[(6-Chloropyridazin-3-yl)aminosulfonyl]phenyl]-(2-chloro-5-nitrophenyl)carboxamide]: the activity at 0.1 µM came out at 114%. For the compound `O=C(Nc1ccc(NC(=O)c2cc([N+](=O)[O-])ccc2Cl)cc1)c1ccncc1` [Example 125, N-[4-(Pyridin-4-ylcarbonylamino)phenyl]-(2-chloro-5-nitrophenyl)carboxamide], the activity at 0.1 µM amounted to 132%.

Turning to `O=C(Nc1nc(-c2cccnc2)cs1)c1cc([N+](=O)[O-])ccc1Cl` [Example 37, N-[4-(3-Pyridyl)thiazol-2-yl)-(2-chloro-5-nitrophenyl)carboxamide], the activity at 0.1 µM came to 114%. Turning to `O=C(Nc1ccc(-c2ccccc2)cc1)c1cc([N+](=O)[O-])ccc1Cl` [Example 2, N-(4-Phenylphenyl)-(2-chloro-5-nitrophenyl)carboxamide], the activity at 0.1 µM is 127%. `O=C(Nc1ccc(-c2ccccn2)cc1)c1cc([N+](=O)[O-])ccc1Cl` [Example 8, N-[4-(2-Pyridyl)phenyl]-(2-chloro-5-nitrophenyl)carboxamide]: the activity at 0.1 µM stood at 114%. On to `CCCCCc1ccc(NC(=O)c2cc([N+](=O)[O-])ccc2Cl)cc1` [Example 16, N-(4-Pentylphenyl)-(2-chloro-5-nitrophenyl)carboxamide], for which the activity at 0.1 µM is 136%. Take `N=C(N)NS(=O)(=O)c1ccc(NC(=O)c2cc([N+](=O)[O-])ccc2Cl)cc1` [Example 106, N-[4-(Amidinoaminosulfonyl)phenyl]-(2-chloro-5-nitrophenyl)carboxamide]: the activity at 0.1 µM was 113%.

`CC(=O)Nc1ccc(NC(=O)c2cc([N+](=O)[O-])ccc2Cl)cc1` [Example 117, N-(4-Acetylaminophenyl)-(2-chloro-5-nitrophenyl)carboxamide]: the activity at 0.1 µM came to 122%. In the case of `O=C(Nc1cccc(NS(=O)(=O)c2ccccc2)c1)c1cc([N+](=O)[O-])ccc1Cl` [Example 30, N-(3-Benzensulfonylaminophenyl)-(2-chloro-5-nitrophenyl)carboxamide], the activity at 0.1 µM was found to be 139%.

On to `O=C(Nc1ccccc1-c1ccccc1)c1cc([N+](=O)[O-])ccc1Cl` [Example 7, N-(2-Phenylphenyl)-(2-chloro-5-nitrophenyl)carboxamide], for which the activity at 0.1 µM worked out at 120%.

`CC(C)(C)c1cc(C(=O)Nc2ccc(NC(=O)c3cc([N+](=O)[O-])ccc3Cl)cc2)cc(C(C)(C)C)c1O` [Example 157, N-[4-[(3,5-di-tert-Butyl-4-hydroxybenzoyl)amino]phenyl]-(2-chloro-5-nitrophenyl)carboxamide]: the activity at 0.1 µM was found to be 116%. Consider `Cc1nc(NC(=O)c2cc([N+](=O)[O-])ccc2Cl)sc1C` [Example 47], for which the activity at 0.1 µM is 141%. Same read-out and setting: the result for `Cc1cccc(-c2csc(NC(=O)c3cc([N+](=O)[O-])ccc3Cl)n2)c1` [Example 40, N-[4-(3-Methylphenyl)thiazol-2-yl)-(2-chloro-5-nitrophenyl)carboxamide] reads 122%; that for `O=C(Nc1nncs1)c1cc([N+](=O)[O-])ccc1Cl` [Example 85, N-(1,3,4-Thiadiazol-2-yl)-(2-chloro-5-nitrophenyl)carboxamide], 125%.

As for `O=C(Nc1nc(-c2ccccc2)cs1)c1cc([N+](=O)[O-])ccc1Cl` [Example 35, N-(4-Phenylthiazol-2-yl)-(2-chloro-5-nitrophenyl)carboxamide], the activity at 0.1 µM was 122%. Same read-out and setting: the result for `O=C(Nc1nc(-c2ccccn2)cs1)c1cc([N+](=O)[O-])ccc1Cl` [Example 38, N-[4-(2-Pyridyl)thiazol-2-yl)-(2-chloro-5-nitrophenyl)carboxamide] reads 137%; that for `O=C(Nc1ccc(S(=O)(=O)Nc2ccc(N3CCOCC3)cc2)cc1)c1cc([N+](=O)[O-])ccc1Cl` [Example 179, N-[4-[4-(Morpholin-4-yl)phenyl]aminosulfonyl]phenyl-(2-chloro-5-nitrophenyl)carboxamide], 128%; that for `O=C(Nc1nc(-c2cccc3ccccc23)cs1)c1cc([N+](=O)[O-])ccc1Cl` [Example 41, N-[4-(1-Naphthyl)thiazol-2-yl]-(2-chloro-5-nitrophenyl)carboxamide], 118%. The same measure, in the same setting: the result for `CN(C)c1cccc(NC(=O)c2cc([N+](=O)[O-])ccc2Cl)c1` [Example 176, N-(3-Dimethylamino)phenyl-(2-chloro-5-nitrophenyl)carboxamide] reads 118%; that for `Cc1ccc(S(=O)(=O)Nc2ccc(NC(=O)c3cc([N+](=O)[O-])ccc3Cl)cc2)cc1` [Example 116, N-[4-(4-Toluenesulfonylamino)phenyl]-(2-chloro-5-nitrophenyl)carboxamide], 124%. On the same count and under the same terms, the result for `CCCNc1ccc(NC(=O)c2cc([N+](=O)[O-])ccc2Cl)cc1` [Example 181, N-[4-(N-Propylamino)phenyl]-(2-chloro-5-nitrophenyl)carboxamide] reads 128%; that for `Cc1cccc(NC(=O)c2cc([N+](=O)[O-])ccc2Cl)n1` [Example 51, N-(6-Methylpyridin-2-yl)-(2-chloro-5-nitrophenyl)carboxamide], 129%; that for `Cc1ccc(-c2nc(NC(=O)c3cc([N+](=O)[O-])ccc3Cl)sc2C)cc1Cl` [Example 46, N-[4-(3-Chloro-4-methylphenyl)-5-methylthiazol-2-yl]-(2-chloro-5-nitrophenyl)carboxamide], 124%. Turning to `Cc1ccc(NC(=O)c2cc([N+](=O)[O-])ccc2Cl)cc1` [Example 1, N-(4-Methylphenyl)-(2-chloro-5-nitrophenyl)carboxamide], the activity at 0.1 µM worked out at 121%.

As for `O=C(Nc1ccc2c3c(cccc13)CC2)c1cc([N+](=O)[O-])ccc1Cl` [Example 54, N-(Acenaphthen-5-yl)-(2-chloro-5-nitrophenyl)carboxamide], the activity at 0.1 µM came out at 118%. `CCCN(CC)c1ccc(NC(=O)c2cc([N+](=O)[O-])ccc2Cl)cc1` [Example 189, N-[4-(N-Ethyl-N-propylamino)phenyl]-(2-chloro-5-nitrophenyl)carboxamide]: the activity at 0.1 µM is 133%.

Take `CCCCCCN(CCCCCC)c1ccc(NC(=O)c2cc([N+](=O)[O-])ccc2Cl)cc1` [Example 138, N-[4-(N,N-di-n-Hexylamino)phenyl]-(2-chloro-5-nitrophenyl)carboxamide]: the activity at 0.1 µM was found to be 126%.
